{"source": "patent US10882818B1", "about": "“P-bromoaniline cassic acid ester with antibacterial activity and a method of preparing the same” (ZHUHAI JINAN SELENIUM SOURCE NANOTECHNOLOGY CO., LTD., priority 2020, dated 2021)", "type_in_all_cases": "cell-based", "key": {"[1]": {"tested_on": "multidrug-resistant Pseudomonas aeruginosa MDR-PA 18-174", "assay": "Antibacterial activity test, MIC by microbroth dilution", "conditions": "for Minimum bacteriostatic concentration: MDR-PA 18-174, microbroth dilution, 37° C., 20-22 hours", "excerpt": "(§1) The minimal inhibitory concentration (MIC) of the compounds as determined by microbroth dilution method with gentamicin, cefazolin sodium and ceftriaxone sodium as positive control.\n(§2) The experimental strains included methicillin-resistant Gram-positive bacteria: methicillin-resistant Staphylococcus aureus MRSA 18-222, 18-575; multiple drug-resistant Gram-negative bacteria: vancomycin-resistant enterococci VRE 18-80, 18-94, multidrug-resistant Pseudomonas aeruginosa MDR-PA 18-1774, 18-202, carbapenem-resistant Acinetobacter baumannii CR-AB 18-183, 18-560. All the experimental strains were donated by Huashan Hospital affiliated to Fudan University (Institute of Antibiotics, Fudan University) and used after routine identification.\n(§3) Preparation of MHB medium: 20.0 g MHB medium was added to 1 L distilled water, boiled until completely dissolved, packed in conical bottles and sterilized at 121° C. for 15 min.\n(§4) The experimental strain was cultured to the logarithmic growth phase: under aseptic condition, the experimental strain was inoculated into 100 mL MHB medium and incubated in a constant temperature and humidity incubator at 37° C. for 20-22 hours.\n(§5) Preparation of storage solution: weighing the sample to be tested, dissolving it with 1% DMSO solution, preparing a storage solution with a concentration of 2560 μg/mL; weighing a positive reference substance, dissolving it with aseptic distilled water, and configuring a storage solution with a concentration of 2560 μg/mL.\n(§6) Preparation of bacterial suspension: under aseptic condition, the experimental strains cultured to logarithmic growth phase were adjusted to 0.5 MCF turbidity standard with MHB medium and diluted according to 1:10, and the bacterial suspension with concentration of 10^6 CFU/mL was prepared for standby.\n(§7) Dilution of storage solution and inoculation of experimental strain: under aseptic condition, the storage solution was diluted to 256 μg/mL solution; taking a sterile 96-well plate, adding 200 μL MHB medium to the 12th well, and adding 100 μL MHB medium to each well; adding 100 μL of positive control solution to the first well, mixing well, and sucking 100 μL from it and discarding; adding 100 μL of the compound sample solution to the second well, mixing well, and then pipetting 100 μL to the third well; after mixing, pipetting 100 μL to the fourth well, and diluting to the 11th well in this way; finally, 100 μL was pipetted from the 11th well and discarded, the 12th hole was the growth control without drugs. The concentration of the positive reference substance is 128 μg/mL; the concentrations of the sample solution are 128, 64, […], 8, 4, 2, 1, 0.5, 0.25 μg/mL, respectively. Then, 100 μL of the prepared bacterial suspension is added to each well, so that the final concentration of the bacterial liquid in each well is 5×10^5 CFU/mL.\n(§8) Incubation: covering the 96-well plate inoculated with the experimental strains, and incubating in a constant temperature and humidity box at 37° C. for 20-22 hours.\nIn FIGS. 1-6, the twelve wells represent twelve groups, from left to right, positive, 128 μg/mL, 64 μg/mL, 32 μg/mL, 16 μg/mL, 8 μg/mL, 4 μg/mL, 2 μg/mL, 1 μg/mL, […], Negative."}, "[2]": {"tested_on": "carbapenem-resistant Acinetobacter baumannii CR-AB 18-560", "assay": "Antibacterial activity test, MIC by microbroth dilution", "conditions": "37° C., 20-22 hours", "excerpt": "as §1, §2, §3, §4, §5, §6, §7, §8"}, "[3]": {"tested_on": "multidrug-resistant Pseudomonas aeruginosa MDR-PA 18-202", "assay": "Antibacterial activity test, MIC by microbroth dilution", "conditions": "37° C., 20-22 hours", "excerpt": "as §1, §2, §3, §4, §5, §6, §7, §8"}, "[4]": {"tested_on": "carbapenem-resistant Acinetobacter baumannii CR-AB 18-183", "assay": "Antibacterial activity test, MIC by microbroth dilution", "conditions": "37° C., 20-22 hours", "excerpt": "as §1, §2, §3, §4, §5, §6, §7, §8"}, "[5]": {"tested_on": "vancomycin-resistant enterococci VRE 18-80", "assay": "Antibacterial activity test, MIC by microbroth dilution", "conditions": "37° C., 20-22 hours", "excerpt": "as §1, §2, §3, §4, §5, §6, §7, §8"}, "[6]": {"tested_on": "methicillin-resistant Staphylococcus aureus MRSA 18-575", "assay": "Antibacterial activity test, MIC by microbroth dilution", "conditions": "37° C., 20-22 hours", "excerpt": "as §1, §2, §3, §4, §5, §6, §7, §8"}, "[7]": {"tested_on": "methicillin-resistant Staphylococcus aureus MRSA 18-222", "assay": "Antibacterial activity test, MIC by microbroth dilution", "conditions": "37° C., 20-22 hours", "excerpt": "as §1, §2, §3, §4, §5, §6, §7, §8"}, "[8]": {"tested_on": "vancomycin-resistant enterococci VRE 18-94", "assay": "Antibacterial activity test, MIC by microbroth dilution", "conditions": "for Minimum bacteriostatic concentration: VRE 18-94, microbroth dilution, 37° C., 20-22 hours", "excerpt": "as §1, §2, §3, §4, §5, §6, §7, §8"}, "drug-resistant bacteria": {"tested_on": "drug-resistant bacteria", "assay": "Antibacterial activity test, overall result on the strain panel", "conditions": "all experimental strains, up to 128 μg/mL", "excerpt": "as §1, §2, §3\nThe experimental strain was cultured to the logarithmic growth phase: under aseptic condition, the experimental strain was inoculated into 100 mL MHB medium and incubated in a constant temperature and humidity incubator at 37° C. for 20-22 hours. […]"}}}
{"compound": "O=C(O)c1cc(O)c2c(c1)C(=O)c1cccc(O)c1C2=O", "note": "[Cassic acid]", "values": [{"measurement": "Minimum bacteriostatic concentration", "setting": "[1]", "value": ">128", "unit": "µg/mL"}, {"measurement": "Minimum bacteriostatic concentration", "setting": "[2]", "value": ">128", "unit": "µg/mL"}, {"measurement": "Minimum bacteriostatic concentration", "setting": "[3]", "value": ">128", "unit": "µg/mL"}, {"measurement": "Minimum bacteriostatic concentration", "setting": "[4]", "value": ">128", "unit": "µg/mL"}, {"measurement": "Minimum bacteriostatic concentration", "setting": "[5]", "value": ">128", "unit": "µg/mL"}, {"measurement": "Minimum bacteriostatic concentration", "setting": "[6]", "value": ">128", "unit": "µg/mL"}, {"measurement": "Minimum bacteriostatic concentration", "setting": "[7]", "value": ">128", "unit": "µg/mL"}, {"measurement": "Minimum bacteriostatic concentration", "setting": "[8]", "value": ">128", "unit": "µg/mL"}, {"measurement": "inhibitory effect on drug-resistant bacteria", "setting": "drug-resistant bacteria", "value": "no inhibitory effect"}]}
{"compound": "Cc1nnc(SCC2=C(C(=O)O)N3C(=O)[C@@H](NC(=O)Cn4cnnn4)[C@H]3SC2)s1", "note": "[Cefazolin sodium, cefazolin sodium]", "values": [{"measurement": "Minimum bacteriostatic concentration", "setting": "[1]", "value": 8, "unit": "µg/mL"}, {"measurement": "Minimum bacteriostatic concentration", "setting": "[2]", "value": ">128", "unit": "µg/mL"}, {"measurement": "Minimum bacteriostatic concentration", "setting": "[3]", "value": 128, "unit": "µg/mL"}, {"measurement": "Minimum bacteriostatic concentration", "setting": "[4]", "value": ">128", "unit": "µg/mL"}, {"measurement": "Minimum bacteriostatic concentration", "setting": "[5]", "value": 32, "unit": "µg/mL"}, {"measurement": "Minimum bacteriostatic concentration", "setting": "[6]", "value": ">128", "unit": "µg/mL"}, {"measurement": "Minimum bacteriostatic concentration", "setting": "[7]", "value": ">128", "unit": "µg/mL"}, {"measurement": "Minimum bacteriostatic concentration", "setting": "[8]", "value": ">128", "unit": "µg/mL"}]}
{"compound": "CO/N=C(\\C(=O)N[C@@H]1C(=O)N2C(C(=O)O)=C(CSc3nc(=O)c(=O)[nH]n3C)CS[C@H]12)c1csc(N)n1", "note": "[Ceftriaxone sodium, ceftriaxone sodium]", "values": [{"measurement": "Minimum bacteriostatic concentration", "setting": "[1]", "value": 128, "unit": "µg/mL"}, {"measurement": "Minimum bacteriostatic concentration", "setting": "[2]", "value": ">128", "unit": "µg/mL"}, {"measurement": "Minimum bacteriostatic concentration", "setting": "[3]", "value": 16, "unit": "µg/mL"}, {"measurement": "Minimum bacteriostatic concentration", "setting": "[4]", "value": ">128", "unit": "µg/mL"}, {"measurement": "Minimum bacteriostatic concentration", "setting": "[5]", "value": 8, "unit": "µg/mL"}, {"measurement": "Minimum bacteriostatic concentration", "setting": "[6]", "value": ">128", "unit": "µg/mL"}, {"measurement": "Minimum bacteriostatic concentration", "setting": "[7]", "value": ">128", "unit": "µg/mL"}, {"measurement": "Minimum bacteriostatic concentration", "setting": "[8]", "value": ">128", "unit": "µg/mL"}]}
{"compound": "Nc1ccc(Br)cc1", "note": "[P-Bromoaniline, P-bromoaniline]", "values": [{"measurement": "Minimum bacteriostatic concentration", "setting": "[1]", "value": ">128", "unit": "µg/mL"}, {"measurement": "Minimum bacteriostatic concentration", "setting": "[2]", "value": ">128", "unit": "µg/mL"}, {"measurement": "Minimum bacteriostatic concentration", "setting": "[3]", "value": ">128", "unit": "µg/mL"}, {"measurement": "Minimum bacteriostatic concentration", "setting": "[4]", "value": ">128", "unit": "µg/mL"}, {"measurement": "Minimum bacteriostatic concentration", "setting": "[5]", "value": ">128", "unit": "µg/mL"}, {"measurement": "Minimum bacteriostatic concentration", "setting": "[6]", "value": ">128", "unit": "µg/mL"}, {"measurement": "Minimum bacteriostatic concentration", "setting": "[7]", "value": ">128", "unit": "µg/mL"}, {"measurement": "Minimum bacteriostatic concentration", "setting": "[8]", "value": ">128", "unit": "µg/mL"}, {"measurement": "inhibitory effect on drug-resistant bacteria", "setting": "drug-resistant bacteria", "value": "no inhibitory effect"}]}
{"compound": "O=C(Nc1ccc(Br)cc1)c1cc(O)c2c(c1)C(=O)c1cccc(O)c1C2=O", "note": "[p-Bromoaniline cassic acid ester, N-(4-bromophenyl)-4,5-dihydroxy-9,10-dioxo-9,10-dihydroanthracene-2-carboxamide]", "values": [{"measurement": "Minimum bacteriostatic concentration", "setting": "[1]", "value": 32, "unit": "µg/mL"}, {"measurement": "MIC", "setting": "[1]; multi-drug resistant Pseudomonas aeruginosa MDR-PA (strain number not given)", "value": 32, "unit": "µg/mL"}, {"measurement": "Minimum bacteriostatic concentration", "setting": "[2]", "value": ">128", "unit": "µg/mL"}, {"measurement": "Minimum bacteriostatic concentration", "setting": "[3]", "value": ">128", "unit": "µg/mL"}, {"measurement": "Minimum bacteriostatic concentration", "setting": "[4]", "value": ">128", "unit": "µg/mL"}, {"measurement": "Minimum bacteriostatic concentration", "setting": "[5]", "value": ">128", "unit": "µg/mL"}, {"measurement": "Minimum bacteriostatic concentration", "setting": "[6]", "value": ">128", "unit": "µg/mL"}, {"measurement": "Minimum bacteriostatic concentration", "setting": "[7]", "value": ">128", "unit": "µg/mL"}, {"measurement": "MIC", "setting": "[8]; Enterococcus, vancomycin-resistant enterococci VRE 18-94", "value": 128, "unit": "µg/mL"}, {"measurement": "Minimum bacteriostatic concentration", "setting": "[8]", "value": 128, "unit": "µg/mL"}]}
{"compound": "gentamicin", "values": [{"measurement": "Minimum bacteriostatic concentration", "setting": "[1]", "value": 0.0625, "unit": "µg/mL"}, {"measurement": "Minimum bacteriostatic concentration", "setting": "[2]", "value": ">128", "unit": "µg/mL"}, {"measurement": "Minimum bacteriostatic concentration", "setting": "[3]", "value": 0.0625, "unit": "µg/mL"}, {"measurement": "Minimum bacteriostatic concentration", "setting": "[4]", "value": ">128", "unit": "µg/mL"}, {"measurement": "Minimum bacteriostatic concentration", "setting": "[5]", "value": 0.0625, "unit": "µg/mL"}, {"measurement": "Minimum bacteriostatic concentration", "setting": "[6]", "value": 2, "unit": "µg/mL"}, {"measurement": "Minimum bacteriostatic concentration", "setting": "[7]", "value": 128, "unit": "µg/mL"}, {"measurement": "Minimum bacteriostatic concentration", "setting": "[8]", "value": ">128", "unit": "µg/mL"}]}
